Here are results for 12 compounds from PubChem BioAssay (NCI).

Common to all, as to assay: NCI tumour cell line growth inhibition, 48 h
Assay [1] deals with HOP-92 NSCLC.
Assay [2] relates to ACHN renal.
Assay [3] has as its system HCT-116 colon.
In assay [4] the test system is UACC-62 melanoma.
For assay [5], the system named is U251 CNS.
Assay [6] has as its system SNB-19 CNS.
The subject of assay [7] is M14 melanoma.
Assay [8] concerns A549 NSCLC.

Values joined by “and” are separate entries in the source; they are usually repeats but may differ in a detail not shown here. Identical values can stand only once.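 Following 48 hours of exposure in 96-well plates, responses at five concentrations were used to interpolate endpoints linearly. GI50 is the concentration that inhibits growth by half. TGI marks complete inhibition of growth.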 Some results are limits rather than exact numbers.

As for `CCOC(=O)N1C/C(=C/c2ccc(OC)cc2)C(=O)/C(=C/c2ccc(OC)cc2)C1`, the GI50 in assay [1] is 4.97 µM; in assay [2], 1.96 µM; in assay [3], 0.21 µM; in assay [4], 1.92 µM; in assay [5], 1.74 µM; in assay [6], 3.87 µM. Besides, the GI50 in assay [7] was 2.11 µM; in assay [8], 2.33 µM. For the same compound, the TGI in assay [1] is > 56.3 µM; in assay [2], 5.18 µM; in assay [3] it was 0.579 µM; in assay [4], 5.4 µM; in assay [5], 3.54 µM; in assay [6], > 35 µM. Also, the TGI turned out to be 5.2 µM in assay [7] and 6.96 µM in assay [8].

Take `CCCCN(CCCC)CC(C)(C)C(O)c1ccc(OC)c2ccccc12` (centres undefined): the GI50 was 3.11 µM in assay [1]; 3.96 µM in assay [2]; 1.08 µM in assay [3]; 4.87 µM in assay [4]; 3.47 µM in assay [5]; 10.6 µM in assay [6]. Further, the GI50 was 4.21 µM in assay [7] and 11.1 µM in assay [8]. Also, the TGI was determined as 8.81 µM in assay [1]; 16 µM in assay [2]; 10.8 µM in assay [3]; 21.3 µM in assay [4]; 13.4 µM in assay [5]; 28.6 µM in assay [6]. In addition, the TGI is 17.7 µM in assay [7] and 35.3 µM in assay [8].

Turning to `COc1cc(OC)c(OC)cc1/C=C1\C=Cc2ccccc21`, the TGI in assay [2] is > 100 µM; in assay [3], 21.9 µM; in assay [5], > 100 µM; in assay [8] it was > 100 µM.

For `COc1ccc(OC)c(-c2cc(-c3ccccc3)nn2-c2ccc(S(N)(=O)=O)cc2)c1`, the GI50 is 15.5 µM in assay [1]; 8.01 µM in assay [2]; 12.1 µM in assay [4]; 5.38 µM in assay [7]; 13.1 µM in assay [8]. Further, the TGI amounted to 50.1 µM in assay [1]; 19.7 µM in assay [2]; 24.7 µM in assay [4]; 16.6 µM in assay [7]; 42.6 µM in assay [8].

In the case of `CCN(CC)CCCCCOc1cc(O)c2c(=O)cc(-c3ccccc3)oc2c1`, the GI50 in assay [2] was 3.72 µM; in assay [3], 1.74 µM; in assay [4], 1.74 µM; in assay [5] it was 3.16 µM; in assay [6], 6.76 µM; in assay [7], 1.71 µM. Moreover, the GI50 in assay [8] is 5.26 µM. The TGI was found to be 11.7 µM in assay [2]; 3.52 µM in assay [3]; 3.15 µM in assay [4]; 11.8 µM in assay [5]; 21.3 µM in assay [6]; 3.1 µM in assay [7]. In assay [8], this compound returned a TGI of 18.5 µM.

For the compound `COc1ccc(C2C(c3ccccc3)C(=O)N2c2cc(OC)c(OC)c(OC)c2)cc1I` (centres undefined), the GI50 in assay [1] is 0.961 µM; in assay [3], 0.343 µM; in assay [4] it was 0.458 µM; in assay [5] it was 0.388 µM; in assay [6], 0.59 µM; in assay [7] it was 0.301 µM. Moreover, the GI50 in assay [8] is 0.479 µM. Further, the TGI is > 100 µM in assay [1]; 12.4 µM in assay [3]; > 100 µM in assay [4]; > 100 µM in assay [5]; > 100 µM in assay [6]; > 100 µM in assay [7]. Also, the TGI in assay [8] was > 100 µM.

Regarding `COc1ccc2[nH]c(-c3cccc(N(C)C)c3)cc(=O)c2c1`, the GI50 in assay [1] is 3.25 µM; in assay [3], 0.56 µM; in assay [4], 0.483 µM; in assay [5], 0.463 µM; in assay [7] it was 0.325 µM and 0.552 µM; in assay [8] it was 4.46 µM. Also, the TGI in assay [2], in assay [4], in assay [7] and in assay [8] was > 100 µM in each case.

Take `COc1ccccc1CNC(=O)C1c2ccccc2C(=O)N(CC(C)C)C1c1cccs1` (centres undefined): the GI50 in assay [1] was 8.15 µM; in assay [2], 24.8 µM; in assay [3], 15.3 µM; in assay [4] it was 14.7 µM; in assay [5], 23.9 µM; in assay [6] it was 28.8 µM. Besides, the GI50 in assay [7] is 19.1 µM. The TGI is 44 µM in assay [1]; 90.3 µM in assay [2]; 77.6 µM in assay [3]; 38.6 µM in assay [4]; > 100 µM in assay [5]; > 100 µM in assay [6]. The compound further returned a TGI in assay [7] of 52.7 µM.

On to `CN1CCN(Cc2ccc(NC(=O)c3[nH]ncc3Nc3ncnc4sccc34)cc2)CC1`, for which the GI50 is 0.223 µM in assay [2]; 0.915 µM in assay [4]; 0.242 µM in assay [5]; 0.335 µM in assay [6]; 0.263 µM in assay [8]. Besides, the TGI in assay [2] was 0.791 µM; in assay [4], > 100 µM; in assay [5], > 100 µM; in assay [6], > 100 µM; in assay [8], > 100 µM.

In the case of `COc1ccc(NC(=O)Nc2ccc(Nc3nc(C)cc(Nc4ccc(C)cc4)n3)cc2)cc1`, the GI50 is 1.44 µM in assay [1]; 1.75 µM in assay [2]; 1.41 µM in assay [4]; 1.72 µM in assay [5]; 1.06 µM in assay [6]; 1.77 µM in assay [7]. Also, the TGI was 3.11 µM in assay [1]; 3.13 µM in assay [2]; 3.04 µM in assay [4]; 3.21 µM in assay [5]; 3.45 µM in assay [6]; 3.72 µM in assay [7].

Take `Cc1ccc(S(=O)(=O)NC(CCC(=O)Nc2ccccc2)C(=O)Nc2ccccc2)cc1` (centres undefined): the GI50 was 0.157 µM in assay [1]; 0.273 µM in assay [3]; 0.172 µM in assay [4]; 0.326 µM in assay [5]; 0.404 µM in assay [7]; 0.319 µM in assay [8]. The TGI in assay [1] stood at 0.544 µM; in assay [3] it was 1.31 µM; in assay [4], 1.12 µM; in assay [5] it was 1.49 µM; in assay [7], 3.62 µM; in assay [8], 1.76 µM.

`COC1(OC)CC2C(=O)N(Cc3ccccc3)C1CC2S(=O)(=O)c1ccccc1` (centres undefined): the TGI in assay [2], in assay [3], in assay [4], in assay [5], in assay [6] and in assay [7] was > 100 µM each time. In addition, the TGI in assay [8] is > 100 µM.
